Measurements taken from PubChem BioAssay AID613 (The Scripps Research Institute Molecular Screening Center, 2007).
Activity calls are given as the source filed them.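 The calls were made as follows: active = EC50 at or below 10 micromolar; inactive = EC50 above 10 micromolar.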

These compounds were tested against 5-hydroxytryptamine receptor 1A (Homo sapiens) (UniProt P08908) (assay: EC50 of serotonin HTR1A agonism – cell-based, CHO, Ga15 NFAT-bla reporter, dose response (AID 613)). Details: CHO 5-HT1a Ga15 NFAT-bla reporter, agonist FRET.
Chain of 5-hydroxytryptamine receptor 1A (Homo sapiens) (P08908 whole entry, looked up): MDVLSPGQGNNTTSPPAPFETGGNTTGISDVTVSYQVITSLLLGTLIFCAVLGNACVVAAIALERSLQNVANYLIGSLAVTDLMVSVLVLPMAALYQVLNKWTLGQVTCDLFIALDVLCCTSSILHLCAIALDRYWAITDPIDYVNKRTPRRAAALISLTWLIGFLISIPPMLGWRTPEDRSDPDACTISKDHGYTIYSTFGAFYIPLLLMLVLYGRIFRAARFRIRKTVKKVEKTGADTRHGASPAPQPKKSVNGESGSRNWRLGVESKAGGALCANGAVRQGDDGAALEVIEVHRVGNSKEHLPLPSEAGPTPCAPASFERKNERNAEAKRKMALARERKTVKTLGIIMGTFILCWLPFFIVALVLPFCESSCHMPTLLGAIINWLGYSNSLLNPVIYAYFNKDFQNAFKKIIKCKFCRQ

| SMILES | EC50 |
| --- | --- |
| Nc1nonc1/C(=N/O)N1CCCC1 | > 99 µM (inactive) |
| Cc1ccc(C2C3CN(C(C)C)CC=C3C(C#N)=C(N)C2(C#N)C#N)cc1 (stereo unspecified) | inactive |
| NC(=O)c1cc2ccc(O)cc2oc1=NCc1ccccc1 | inactive |
| CN(C)c1ccc(C2C=C(c3ccc(Cl)cc3OC(F)F)Nc3ncnn32)cc1 (stereo unspecified) | > 99 µM (inactive) |
| Cc1cccc(N=c2oc3cc(O)ccc3cc2C(N)=O)c1 | inactive |
| N#C/C(=C(/O)COC(=O)Cc1c[nH]c2ccccc12)c1nc2ccccc2[nH]1 | > 99 µM (inactive) |
| Cc1ccc(N=c2oc3cc(O)ccc3cc2C(N)=O)cc1 | inactive |
| CCCCCCc1cc2cc(-c3nnc(-c4ccccc4O)o3)c(=O)oc2cc1O | > 99 µM (inactive) |
| NC(=O)c1cc2ccc(O)cc2oc1=Nc1ccccc1 | inactive |
| Cc1ccc(N2C(=O)CC(N3CCN(C4CCc5ccccc5C4)CC3)C2=O)cc1 (stereo unspecified) | > 99 µM (inactive) |
| CC(C)N1CC=C2C(C#N)=C(N)C(C#N)(C#N)C(c3ccccc3)C2C1 (stereo unspecified) | inactive |
| CCCCCCc1cc2cc(C(=O)NC)c(=N)oc2cc1O | inactive |
| N#CC1=C(N)N(c2ccccc2)C(c2ccco2)C1(C#N)C#N (stereo unspecified) | > 99 µM (inactive) |
| COc1ccccc1N=c1oc2cc(O)ccc2cc1C(N)=O | inactive |

The next lines start with the values.

| EC50 | SMILES |
| --- | --- |
| > 99 µM (inactive) | COc1ccc(OC)c(N=c2oc3cc(O)ccc3cc2C(N)=O)c1 |
| > 99 µM (inactive) | CCN(CC)c1ccc2cc(C(=O)Nc3ccccn3)c(=O)oc2c1 |
| > 99 µM (inactive) | CCCCOc1ccc(C2C3CN(C(=O)OCC)CC=C3C(C#N)=C(N)C2(C#N)C#N)cc1OC (stereo unspecified) |
| > 33 µM (inactive) | CCOC(=O)c1sc2c(c1C)C(c1cccs1)C1=C(CCCC1=O)N2 (stereo unspecified) |
| > 99 µM (inactive) | CCSCCOC(=O)C1=C(C)NC(=O)NC1c1ccc2c(c1)OCO2 (stereo unspecified) |
| inactive | COc1ccccc1N=c1oc2cc(O)ccc2cc1C(=O)NCC1CCCO1 (stereo unspecified) |
| > 99 µM (inactive) | COc1ccc(N=c2oc3cc(O)ccc3cc2C(=O)NCC2CCCO2)cc1 (stereo unspecified) |
| > 99 µM (inactive) | C=CCOc1cccc(C2C(C(=O)c3ccco3)=C(O)C(=O)N2CCN(CC)CC)c1 (stereo unspecified) |
| > 99 µM (inactive) | COc1ccc(N=c2oc3cc(O)ccc3cc2C(=O)NCC2CCCO2)c(OC)c1 (stereo unspecified) |
| > 99 µM (inactive) | CN(C)CCCN1C(=O)C(=O)/C(=C(/O)c2ccc3c(c2)OCCO3)C1c1ccccn1 (stereo unspecified) |
| > 99 µM (inactive) | Cc1noc(NS(=O)(=O)c2ccc(N3CC(O)=C(c4ccccc4)C3=N)cc2)c1C |
| > 99 µM (inactive) | COCCOC(=O)C1=C(C)Nc2nc(C)nn2C1c1ccc(F)cc1 (stereo unspecified) |
